Reference: PubChem BioAssay (NCI)
Values joined by “and” are separate entries in the source; they are usually repeats but may differ in a detail not shown here. Equal entries are not always repeated.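 Assay format: 96-well plates, 48-hour exposure. GI50 marks 50% less growth. The concentration for full growth arrest is given as TGI.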

tested on: SF-268 CNS; test: DTP human tumour cell line panel, 48 h

| SMILES | TGI [µM] | GI50 [µM] |
| --- | --- | --- |
| CCOC(=O)c1c(CN2CCCC2)n(-c2ccccc2)c2cc(Br)c(O)cc12 | 49.7 |  |
| COc1cccc(Nc2nc(-c3cccs3)nc3cc(OC)c(OC)cc23)c1 | > 100 |  |
| Nn1c(-c2ccccc2)n[nH]c1=O | > 100 |  |
| Nn1c(Nc2ccc(S(=O)(=O)Nc3ncccn3)cc2)nnc(/C=C/c2c(O)ccc3ccccc23)c1=O | > 100 |  |
| Cc1cc(-c2nc3ccc(F)cc3s2)ccc1NC(=O)[C@H](C)N | 22.8 |  |
| Cc1cc(Nc2ccc(S(=O)(=O)O)c3cc(S(=O)(=O)O)cc(S(=O)(=O)O)c23)c2ccccc2n1 | > 100 |  |
| Cc1cc(C)nc(NS(=O)(=O)c2ccc(NC(=O)c3ccc4nc5ccccc5c(Nc5ccc(S(N)(=O)=O)cc5)c4c3)cc2)n1 | > 100 |  |
| Nc1c(-c2ccc(Cl)c(Cl)c2)c2ccc([N+](=O)[O-])cc2c(=O)n1-c1nc2ccccc2s1 | > 39.4 |  |
| CC1(C(=O)O)CCC2(C)CCC3(C)C(=CC(=O)C4C5(C)CCC(O)C(C)(C)C5CCC43C)C2C1 (configuration not stated) | 67.4 |  |
| COC(=O)c1c(C)nc2c1cc(O)c1[nH]c(C)c(C)nc12 | > 100 |  |
| Cn1c2ccc3cc2c(=S)c2cc(ccc21)OCCOCCOCCOCCOCCOCCO3 | > 10 |  |
| O=[N+]([O-])c1cc(C=NC23CC4CC(CC(C4)C2)C3)ccc1Cl | > 85.9 |  |
| COc1cc(S(=O)(=O)Nc2nc(-c3ccc(N4C(=O)C(CC(=O)O)SC4c4cccs4)cc3)cs2)ccc1Cl (configuration not stated) | 50.9 |  |
| CCCCCC1=CC(=O)C1(Cl)Cl | 55.5 |  |
| CC(=O)N(C(=O)CC(=O)N1N=C(c2ccccc2)C(N=Nc2ccccc2[N+](=O)[O-])C1=O)c1ccc(Cl)cc1 (configuration not stated) | > 10 |  |
| CC(=O)N1C(C(=O)NC2CCCCC2)CSC1c1ccccc1 (configuration not stated) | > 100 |  |
| Oc1ccccc1CNCc1nc2ccccc2[nH]1 | > 100 |  |
| COc1ncc(/C=C2\OC(=O)c3ccccc32)c(OC)n1 | > 100 |  |
| CC1(C)O[C@H]2OC(CO[Si](C)(C)C(C)(C)C)C(N=[N+]=[N-])[C@H]2O1 (some centres not stated) | 41.3 |  |
| C[C@]12CCC3C4=C(CCC3C1CCC2=O)C(=O)[C@H]1O[C@H]1C4=O (some centres not stated) | 5.32 |  |
| O=[N+]([O-])c1ccc(Cl)cc1N/N=C/c1ccnc2ccccc12 | > 100 |  |

| SMILES | TGI [µM] | GI50 [µM] |
| --- | --- | --- |
| Oc1[nH]c2ccccc2c1N=Nc1nc(-c2ccc(Br)cc2)cs1 | 46.8 |  |
| CC(C)c1cc2c(cc1S(=O)(=O)O)[C@@]1(C)CCC[C@@](C)(C(=O)O)C1CC2 (some centres not stated) | > 100 |  |
| N#CC(Cc1ccccc1)N(CCC1=CCCCC1)C(c1ccccc1)c1ccccc1 (configuration not stated) | > 100 |  |
| C/C(=C\CBr)CCC(Br)C(C)(C)Br (configuration not stated) | > 100 |  |
| C#CCn1c(=O)c2ccccc2n(CC#C)c1=O | > 10 |  |
| O=C1CCC2(c3ccc(Cl)cc3)Nc3ccncc3N12 (configuration not stated) | > 10 |  |
| Oc1ccc(Cc2cc(Cc3ccc(O)cc3)cc(Cc3ccc(O)cc3)c2)cc1 | > 50 |  |
| [N-]=[N+]=NC(c1ccccc1)(c1ccccc1)c1ccccc1 | 35.7 |  |
| C[C@]12CC[C@H](O)CC1=CC[C@@H]1[C@@H]2CC[C@]2(C)C(=N/N)/C(=N\O)C[C@@H]12 | > 100 |  |
| COc1ccc(CN2C(=O)/C(=C\c3cc(OC)c(OC)c(OC)c3)c3ccccc32)cc1 | 7.93 | 2.65 |
| CCOP(=O)(OCC)C(F)(F)c1ccc(CC(NC(=O)OC(C)(C)C)C(=O)O)cc1 (configuration not stated) | > 10 |  |
| O=C(C1OC1c1ccc(Br)cc1O)C12CC3CC(CC(C3)C1)C2 (configuration not stated) | > 100 |  |
| Cc1ccccc1OC(C)C(=O)NN1C(=O)CSC1c1ccccc1 (configuration not stated) | > 100 |  |
| c1ccc2c3[nH]c(c2c1)=Nc1ccc(cc1)-c1nc2cc(ccc2o1)N=c1[nH]c(c2ccccc12)=Nc1ccc2nc(oc2c1)-c1ccc(cc1)N=3 | > 100 |  |
| CC(C)=CCC[C@@H](C)c1c(O)c(O)c(C)c2nccnc12 | > 100 |  |
| Cc1ccc(-c2cc(-c3ccco3)c(C#N)c(=S)n2C2OC(CO)C(O)C(O)C2O)cc1 (configuration not stated) | > 100 | 44.8 |
| O=C(Cc1ccc(O)c(O)c1)NCc1c[nH]c2ccccc12 | > 100 |  |
| COc1nncc2[nH]c(-c3ccccc3)cc12 | > 100 |  |
| O=S(=O)(c1ccccc1)c1cccc2c1NCCC2 | > 100 |  |
| COP(=O)(OC)C1=c2c(C)noc2=C2C=COC2C1=O (configuration not stated) | > 100 |  |
| COc1cccc(C2SC(N)=Nc3c2c(C)nn3C(=O)c2ccccc2O)c1 (configuration not stated) | > 10 |  |

tested on: NCI-H23 lung; test: DTP human tumour cell line panel, 48 h

| SMILES | TGI | GI50 |
| --- | --- | --- |
| CCOC(=O)c1c(CN2CCCC2)n(-c2ccccc2)c2cc(Br)c(O)cc12 | 42.8 µM |  |
| COc1cccc(Nc2nc(-c3cccs3)nc3cc(OC)c(OC)cc23)c1 | 89.7 µM |  |
| Nn1c(-c2ccccc2)n[nH]c1=O | > 100 µM |  |
| Nn1c(Nc2ccc(S(=O)(=O)Nc3ncccn3)cc2)nnc(/C=C/c2c(O)ccc3ccccc23)c1=O | 45.6 µM |  |
| Cc1cc(-c2nc3ccc(F)cc3s2)ccc1NC(=O)[C@H](C)N | 26.1 µM |  |
| Cc1cc(Nc2ccc(S(=O)(=O)O)c3cc(S(=O)(=O)O)cc(S(=O)(=O)O)c23)c2ccccc2n1 | > 100 µM |  |
| Cc1cc(C)nc(NS(=O)(=O)c2ccc(NC(=O)c3ccc4nc5ccccc5c(Nc5ccc(S(N)(=O)=O)cc5)c4c3)cc2)n1 | > 100 µM |  |
| Nc1c(-c2ccc(Cl)c(Cl)c2)c2ccc([N+](=O)[O-])cc2c(=O)n1-c1nc2ccccc2s1 | 3.13 µM |  |
| CC1(C(=O)O)CCC2(C)CCC3(C)C(=CC(=O)C4C5(C)CCC(O)C(C)(C)C5CCC43C)C2C1 (configuration not stated) | 44.8 µM |  |
| COC(=O)c1c(C)nc2c1cc(O)c1[nH]c(C)c(C)nc12 | > 100 µM |  |
| Cn1c2ccc3cc2c(=S)c2cc(ccc21)OCCOCCOCCOCCOCCOCCO3 | > 10 µM |  |
| O=[N+]([O-])c1cc(C=NC23CC4CC(CC(C4)C2)C3)ccc1Cl | 42.8 µM |  |
| COc1cc(S(=O)(=O)Nc2nc(-c3ccc(N4C(=O)C(CC(=O)O)SC4c4cccs4)cc3)cs2)ccc1Cl (configuration not stated) | 49 µM |  |
| CCCCCC1=CC(=O)C1(Cl)Cl | 49.7 µM |  |
| CC(=O)N(C(=O)CC(=O)N1N=C(c2ccccc2)C(N=Nc2ccccc2[N+](=O)[O-])C1=O)c1ccc(Cl)cc1 (configuration not stated) | > 10 µM |  |
| CC(=O)N1C(C(=O)NC2CCCCC2)CSC1c1ccccc1 (configuration not stated) | > 100 µM |  |
| Oc1ccccc1CNCc1nc2ccccc2[nH]1 | > 100 µM |  |
| COc1ncc(/C=C2\OC(=O)c3ccccc32)c(OC)n1 | > 100 µM |  |
| CC1(C)O[C@H]2OC(CO[Si](C)(C)C(C)(C)C)C(N=[N+]=[N-])[C@H]2O1 (some centres not stated) | 39 µM |  |
| C[C@]12CCC3C4=C(CCC3C1CCC2=O)C(=O)[C@H]1O[C@H]1C4=O (some centres not stated) | 8.4 µM |  |

| SMILES | TGI | GI50 |
| --- | --- | --- |
| O=[N+]([O-])c1ccc(Cl)cc1N/N=C/c1ccnc2ccccc12 | > 100 µM |  |
| Oc1[nH]c2ccccc2c1N=Nc1nc(-c2ccc(Br)cc2)cs1 | > 100 µM |  |
| CC(C)c1cc2c(cc1S(=O)(=O)O)[C@@]1(C)CCC[C@@](C)(C(=O)O)C1CC2 (some centres not stated) | > 100 µM |  |
| N#CC(Cc1ccccc1)N(CCC1=CCCCC1)C(c1ccccc1)c1ccccc1 (configuration not stated) | > 100 µM |  |
| C/C(=C\CBr)CCC(Br)C(C)(C)Br (configuration not stated) | > 100 µM |  |
| C#CCn1c(=O)c2ccccc2n(CC#C)c1=O | > 10 µM |  |
| O=C1CCC2(c3ccc(Cl)cc3)Nc3ccncc3N12 (configuration not stated) | > 10 µM |  |
| [N-]=[N+]=NC(c1ccccc1)(c1ccccc1)c1ccccc1 | 42.4 µM |  |
| C[C@]12CC[C@H](O)CC1=CC[C@@H]1[C@@H]2CC[C@]2(C)C(=N/N)/C(=N\O)C[C@@H]12 | > 100 µM |  |
| COc1ccc(CN2C(=O)/C(=C\c3cc(OC)c(OC)c(OC)c3)c3ccccc32)cc1 | 6.43 µM | 2.35 µM |
| CCOP(=O)(OCC)C(F)(F)c1ccc(CC(NC(=O)OC(C)(C)C)C(=O)O)cc1 (configuration not stated) | > 10 µM |  |
| O=C(C1OC1c1ccc(Br)cc1O)C12CC3CC(CC(C3)C1)C2 (configuration not stated) | 81.3 µM |  |
| Cc1ccccc1OC(C)C(=O)NN1C(=O)CSC1c1ccccc1 (configuration not stated) | > 100 µM |  |
| c1ccc2c3[nH]c(c2c1)=Nc1ccc(cc1)-c1nc2cc(ccc2o1)N=c1[nH]c(c2ccccc12)=Nc1ccc2nc(oc2c1)-c1ccc(cc1)N=3 | > 100 µM |  |
| CC(C)=CCC[C@@H](C)c1c(O)c(O)c(C)c2nccnc12 | > 79.1 µM |  |
| Cc1ccc(-c2cc(-c3ccco3)c(C#N)c(=S)n2C2OC(CO)C(O)C(O)C2O)cc1 (configuration not stated) | 90.4 µM and > 100 µM | 19.7 µM and 51.9 µM |
| O=C(Cc1ccc(O)c(O)c1)NCc1c[nH]c2ccccc12 | > 100 µM |  |
| COc1nncc2[nH]c(-c3ccccc3)cc12 | > 100 µM |  |
| COP(=O)(OC)C1=c2c(C)noc2=C2C=COC2C1=O (configuration not stated) | > 100 µM |  |
| COc1cccc(C2SC(N)=Nc3c2c(C)nn3C(=O)c2ccccc2O)c1 (configuration not stated) | > 10 µM |  |

tested on: COLO 205 colon; test: DTP human tumour cell line panel, 48 h

| SMILES | TGI [µM] |
| --- | --- |
| CCOC(=O)c1c(CN2CCCC2)n(-c2ccccc2)c2cc(Br)c(O)cc12 | 22.4 |
| COc1cccc(Nc2nc(-c3cccs3)nc3cc(OC)c(OC)cc23)c1 | 62.3 |
| Nn1c(-c2ccccc2)n[nH]c1=O | > 100 |
| Cc1cc(-c2nc3ccc(F)cc3s2)ccc1NC(=O)[C@H](C)N | 23.8 |
| Cc1cc(Nc2ccc(S(=O)(=O)O)c3cc(S(=O)(=O)O)cc(S(=O)(=O)O)c23)c2ccccc2n1 | > 100 |
| Cc1cc(C)nc(NS(=O)(=O)c2ccc(NC(=O)c3ccc4nc5ccccc5c(Nc5ccc(S(N)(=O)=O)cc5)c4c3)cc2)n1 | > 100 |
| Nc1c(-c2ccc(Cl)c(Cl)c2)c2ccc([N+](=O)[O-])cc2c(=O)n1-c1nc2ccccc2s1 | 2.89 |
| CC1(C(=O)O)CCC2(C)CCC3(C)C(=CC(=O)C4C5(C)CCC(O)C(C)(C)C5CCC43C)C2C1 (configuration not stated) | > 100 |
| COC(=O)c1c(C)nc2c1cc(O)c1[nH]c(C)c(C)nc12 | > 100 |
| Cn1c2ccc3cc2c(=S)c2cc(ccc21)OCCOCCOCCOCCOCCOCCO3 | > 10 |
| O=[N+]([O-])c1cc(C=NC23CC4CC(CC(C4)C2)C3)ccc1Cl | > 70.3 |
| COc1cc(S(=O)(=O)Nc2nc(-c3ccc(N4C(=O)C(CC(=O)O)SC4c4cccs4)cc3)cs2)ccc1Cl (configuration not stated) | > 100 |
| CCCCCC1=CC(=O)C1(Cl)Cl | 26.7 |
| CC(=O)N(C(=O)CC(=O)N1N=C(c2ccccc2)C(N=Nc2ccccc2[N+](=O)[O-])C1=O)c1ccc(Cl)cc1 (configuration not stated) | > 10 |
| Oc1ccccc1CNCc1nc2ccccc2[nH]1 | 82.7 |
| COc1ncc(/C=C2\OC(=O)c3ccccc32)c(OC)n1 | > 100 |
